Measurements as given in US8808716B2, “Topical foam composition” (Stiefel Research Australia Pty Ltd, priority 2009, dated 2014).

Test: accelerated stability study (HPLC) of compatibility of tazarotene with surfactants
Format: physicochemical
Conditions: 50° C.; in hydrophilic ethoxylated fatty alcohol ether surfactant such as Ceteareth-12, in contrast to various lipophilic surfactants
Protocol: An accelerated stability study (using HPLC) was conducted at 50° C. to measure the compatibility of tazarotene with various surfactants.

In the case of `CCOC(=O)c1ccc(C#Cc2ccc3c(c2)C(C)(C)CCS3)nc1` [tazarotene], the “tazarotene stability (compatibility with surfactant)” value is reported as “most stable”.
